The test system of one series is rgRSV224 virus. The series is described as follows: Antiviral activity: rgRSV224 (GFP) replication in HeLa cells. Type of series: cell-based, respiratory syncytial virus (RSV). To be noted: for EC50: human respiratory syncytial virus, HeLa, 72 h, read-out: RSV HELA pEC50, rgRSV224 virus (MOI=1), HeLa cells, GFP expression, three days post-virus exposure (converted). Here is the method:
Black 384-well clear-bottom microtiter plates (Corning, Amsterdam, The Netherlands) were filled via acoustic drop ejection using the echo liquid handler (Labcyte, Sunnyvale, Calif.), 200 nL of compound stock solutions (100% DMSO) were transferred to the assay plates, 9 serial 4-fold dilutions of compound were made, creating per quadrant the same compound concentration. The assay was initiated by adding 10 μL of culture medium to each well (RPMI medium without phenol red, 10% FBS-heat inactivated, 0.04% gentamycin (50 mg/mL). All addition steps are done by using a multidrop dispenser (Thermo Scientific, Erembodegem, Belgium). Next, rgRSV224 virus (MOI=1) diluted in culture medium was added to the plates, rgRSV224 virus is an engineered virus that includes an additional GFP gene (Hallak L K, Spillmann D. Collins P L, Peeples M E.
(§1) Glycosaminoglycan sulfation requirements for respiratory syncytial virus infection; Journal of virology (2000), 74(22), 10508-13) and was in-licensed from the NIH (Bethesda, Md., USA). Finally, 20 μL of a HeLa cell suspension (3,000 cells/well) were plated. Medium, virus- and mock-infected controls were included in each test. The wells contain 0.05% DMSO per volume. Cells were incubated at 37° C. in a 5% CO2 atmosphere. Three days post-virus exposure, viral replication was quantified by measuring GFP expression in the cells by an in house developed MSM laser microscope (Tibotec. Beerse, Belgium). The EC50 was defined as the 50% inhibitory concentration for GFP expression. In parallel, compounds were incubated for three days in a set of white 384-well microtiter plates (Corning) and the cytotoxicity of compounds in HeLa cells was determined by measuring the ATP content of the cells using the ATPlite kit (PerkinElmer, Zaventem, Belgium) according to the manufacturer's instructions. The CC50 was defined as the 50% concentration for cytotoxicity.

Series [1] can be described thus: Cytotoxicity in HeLa cells (ATP content, ATPlite kit). To be noted: human, three days incubation, read-out: TOX HELA pCC50 (converted). Type of series: cell-based. Here is the method:
as §1
(ATP-based viability assays read luminescence as a measure of living cells.)

A further series deals with HeLa cells. The description is as above. The format is cell-based. To be noted: three days incubation. The protocol: as §1

Where only a bound is given, the exact number is not on record here.

The melting point is the temperature of the solid-liquid transition. For `Fc1cccc(-c2nccnc2N2CCN(c3ccccc3)CC2)c1` [Compound 6], the melting point was found to be 139.51 °C. The EC50 in the series with rgRSV224 virus was 575 nM. The CC50 at 3 days in series [1] was more than 100000 nM.
For the molecule `Fc1ccc(-c2ncccc2N2CCN(c3ccncc3)CC2)cc1` [Compound 13], the melting point is 173.62 °C. Also, the EC50 in the series with rgRSV224 virus is 603 nM. Further, the CC50 at 3 days in series [1] was more than 89100 nM.
With `c1cnc(-c2ccc3c(c2)OCO3)c(N2CCN(c3ccncc3)CC2)c1` [Compound 9], the melting point was found to be 187.8 °C. Further, the EC50 with rgRSV224 virus is 692 nM. In series [1], the CC50 at 3 days was more than 100000 nM.
With `c1cnc(-c2ccc3[nH]ccc3c2)c(N2CCN(c3ccncc3)CC2)c1` [Compound 36], the melting point amounted to 252 °C. Also, in the series on rgRSV224 virus, the EC50 was 79.4 nM. Moreover, in series [1], the CC50 at 3 days is 44700 nM.
In turn, `c1cnc(-c2ccc3ccccc3c2)c(N2CCN(c3ccncc3)CC2)c1` [Compound 10] registered a melting point of 162.05 °C. Besides, in the series with rgRSV224 virus, the EC50 was 79.4 nM. The CC50 at 3 days in series [1] was 39800 nM.
With `COc1ccc(-c2ncccc2N2CCN(c3ccncc3)CC2)cc1` [Compound 4], the melting point was 216 °C. Moreover, in the series with rgRSV224 virus (rgRSV224 virus (MOI=1), HeLa cells, GFP expression, three days post-virus exposure), the “RSV HELA pEC50” value came to 6.38. Also, the “TOX HELA pCC50” value in the series on HeLa cells is reported as less than 4.01.
As for `c1cnc(-c2cc3ccccc3o2)c(N2CCN(c3ccncc3)CC2)c1` [Compound 23], the melting point stood at 252 °C. Also, the EC50 in the series with rgRSV224 virus was 58.9 nM. The CC50 at 3 days in series [1] was more than 50100 nM.
`c1cnc(-c2ccc3ncsc3c2)c(N2CCN(c3ccncc3)CC2)c1` [Compound 45] returned a melting point of 196 °C. Moreover, the EC50 in the series with rgRSV224 virus was 155 nM. Also, the CC50 at 3 days in series [1] is more than 100000 nM.
For `CC(=O)c1cccc(-c2ncccc2N2CCN(c3ccccc3)CC2)c1` [Compound 8], in that order: 175.94 °C, 646 nM and more than 100000 nM.
`c1cnc(-c2ccc3c(c2)OCCO3)c(N2CCN(c3ccncc3)CC2)c1` [Compound 22]: the melting point was 88 °C. Also, in the series with rgRSV224 virus, the EC50 was 537 nM. In addition, in series [1], the CC50 at 3 days was 398 nM.
Molecule `OCCCn1ccc2cc(-c3ncccc3N3CCN(c4ccncc4)CC3)ccc21` [Compound 46] registered a melting point of 110 °C. Further, the EC50 in the series on rgRSV224 virus was 148 nM. Moreover, in series [1], the CC50 at 3 days is 52500 nM.
`Clc1ccc(-c2ncccc2N2CCN(c3ccncc3)CC2)cc1Cl` [Compound 11] registered a melting point of 159.5 °C. Moreover, in the series on rgRSV224 virus, the EC50 is 269 nM. Further, the CC50 at 3 days in series [1] was 28200 nM.
Taken in the same sequence, the figures for `CC(C)(O)c1ncccc1N1CCN(c2ccncc2)CC1` [Compound 70] were 163 °C, 19100 nM and more than 100000 nM.
As to `c1cnc(-c2cccc3cc[nH]c23)c(N2CCN(c3ccncc3)CC2)c1` [Compound 39], the melting point is 162 °C. Moreover, the EC50 with rgRSV224 virus is 851 nM. Further, the CC50 at 3 days in series [1] was 55000 nM.
On to `CCn1ccc2cc(-c3ncccc3N3CCN(c4ccncc4)CC3)ccc21` [Compound 37], for which the melting point is 110 °C. Besides, the EC50 in the series on rgRSV224 virus was 30.9 nM. Also, in series [1], the CC50 at 3 days is 21900 nM.
`OC(c1ccccc1)(c1ccccc1)c1ncccc1N1CCN(c2ccncc2)CC1` [Compound 68] yielded a melting point of 260 °C. The EC50 with rgRSV224 virus was 25.1 nM. Moreover, in series [1], the CC50 at 3 days is more than 25100 nM.
Taken in the same sequence, the figures for `Fc1cccc(-c2ncccc2N2CCN(c3ccncc3)CC2)c1` [Compound 12] were 184.88 °C, 871 nM and more than 100000 nM.
`c1ccc(-c2ccc(-c3ncccc3N3CCN(c4ccncc4)CC3)cc2)cc1` [Compound 59]: the melting point is 98 °C. For the same molecule, the EC50 with rgRSV224 virus is 525 nM. Moreover, the CC50 at 3 days in series [1] was 10700 nM.
`c1cnc(-c2cc3ccccc3s2)c(N2CCN(c3ccncc3)CC2)c1` [Compound 21] registered a melting point of 224 °C. In addition, the EC50 with rgRSV224 virus is 204 nM. In addition, the CC50 at 3 days in series [1] is 10500 nM.
In the case of `c1cnc(-c2cccc3ccccc23)c(N2CCN(c3ccncc3)CC2)c1` [Compound 26], the melting point turned out to be 90 °C. In the series with rgRSV224 virus, the EC50 was 85.1 nM. For the same molecule, the CC50 at 3 days in series [1] is 7410 nM.
Take `COc1ccc(-c2ncccc2N2CCN(c3ccncc3)CC2)cn1` [Compound 17]: the melting point worked out at 138 °C. The EC50 with rgRSV224 virus is 437 nM. For the same molecule, the CC50 at 3 days in series [1] is more than 97700 nM.
The molecule `c1coc(-c2ccc(-c3nccnc3N3CCN(c4ccncc4)CC3)cc2)c1` [Compound 55] gave a melting point of 153.75 °C. Further, the EC50 in the series on rgRSV224 virus is 794 nM. Also, the CC50 at 3 days in series [1] was 36300 nM.
Taken in the same sequence, the figures for `COc1ccc(-c2ccc(-c3ncccc3N3CCN(c4ccncc4)CC3)cc2)cc1` [Compound 62] were 178 °C, 257 nM and 11500 nM.
On to `Cc1ccc(-c2ccc(-c3ncccc3N3CCN(c4ccncc4)CC3)cc2)o1` [Compound 65], for which the melting point came out at 230 °C. In the series on rgRSV224 virus, the EC50 was 191 nM. Also, the CC50 at 3 days in series [1] was 11000 nM.
In turn, `c1cnc(N2CCN(c3ccncc3)CC2)c(N2CCN(c3ccncc3)CC2)c1` [Compound 69] had a melting point of 186 °C. Further, the EC50 with rgRSV224 virus was 933 nM. Further, in series [1], the CC50 at 3 days was 40700 nM.
`c1ccc(Oc2nccnc2N2CCN(c3ccncc3)CC2)cc1` [Compound 54] displayed a melting point of 130 °C. The EC50 with rgRSV224 virus is 10700 nM. Further, in series [1], the CC50 at 3 days is 87100 nM.
`c1cnc(-c2cccc3ncccc23)c(N2CCN(c3ccncc3)CC2)c1` [Compound 31]: the melting point was 96 °C. In addition, in the series with rgRSV224 virus, the EC50 was 724 nM. Besides, in series [1], the CC50 at 3 days is more than 97700 nM.
`c1coc(-c2ccc(-c3ncccc3N3CCN(c4ccncc4)CC3)cc2)c1` [Compound 56] displayed a melting point of 224.32 °C. Besides, the EC50 in the series on rgRSV224 virus was 95.5 nM. Moreover, the CC50 at 3 days in series [1] was 19500 nM.
In turn, `c1cnc(-c2ccc(N3CCCCC3)cc2)c(N2CCN(c3ccncc3)CC2)c1` [Compound 60] registered a melting point of 92 °C. In the series on rgRSV224 virus, the EC50 is 355 nM. For the same molecule, the CC50 at 3 days in series [1] is 22900 nM.
Regarding `CSc1ccc(-c2ncccc2N2CCN(c3ccncc3)CC2)cc1` [Compound 35], the melting point came to 160 °C. In the series with rgRSV224 virus, the EC50 is 117 nM. For the same molecule, the CC50 at 3 days in series [1] is 45700 nM.
As for `c1cnc(-c2coc3ccccc23)c(N2CCN(c3ccncc3)CC2)c1` [Compound 38], the melting point is 210 °C. Further, the EC50 with rgRSV224 virus was 132 nM. Also, in series [1], the CC50 at 3 days was 44700 nM.

The values above are taken from patent US10150761B2, “Substituted pyridine-piperazinyl analogues as RSV antiviral compounds” (Janssen Sciences Ireland UC, priority 2013, dated 2018).
